Data published in patent publication US11358952B2, “Substituted 4-aminoisoindoline-1,3-dione compounds, compositions thereof, and methods of treatment therewith” (Celgene Corporation, priority 2018, dated 2022).

What follows are compounds tested on SU-DHL-4 cell line (assay: SU-DHL-4 cell proliferation assay (Cell Titer-Glo viability)). Settings: Homo sapiens; cell viability IC50 activity level, DLBCL cell line SU-DHL-4, 120 hours post-treatment; read-out: SU-DHL-4 Act.
Assay type: cell-based
Method in brief: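 Viability read by ATP luminescence (Cell Titer-Glo) at the start and after 120 h of growth at 37°C in 5% CO2. DLBCL cells were seeded at 500 per well with compound across 0.5 nM–10 μM in 20 points, 0.1% DMSO. A four-parameter sigmoidal fit gave IC50 as 50% of DMSO control.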

IC50 | Structure (SMILES)
< 200 nM | CC1(C)COCCN1C1CN(Cc2ccc(CNc3cccc4c3C(=O)N(C3CCC(=O)NC3=O)C4=O)c(F)c2)C1 (centres unmarked) [Cpd 237, 4-(4-((3-(3,3-dimethylmorpholino)azetidin-1-yl)methyl)-2-fluorobenzylamino)-2-(2,6-dioxopiperidin-3-yl)isoindoline-1,3-dione]
200 to 500 nM | Cc1cc(CNc2cccc3c2C(=O)N(C2CCC(=O)NC2=O)C3=O)ccc1CN1CC(N2[C@H](C)COC[C@@H]2C)C1 (stereo partly drawn) [Cpd 240, 4-(4-((3-((3S,5R)-3,5-dimethylmorpholino)azetidin-1-yl)methyl)-3-methylbenzylamino)-2-(2,6-dioxopiperidin-3-yl)isoindolinne-1,3-dione]
< 200 nM | O=C1CCC(N2C(=O)c3cccc(NCc4ccc(CN5CC6(CCOC6)C5)cc4F)c3C2=O)C(=O)N1 (centres unmarked) [Cpd 241, 4-(4-(6-oxa-2-azaspiro[3.4]octan-2-ylmethyl)-2-fluorobenzylamino)-2-(2,6-dioxopiperidin-3-yl)isoindoline-1,3-dione]
200 to 500 nM | O=C1CCC(N2C(=O)c3cccc(NCc4ccc(CN5CCCOCC5)cc4F)c3C2=O)C(=O)N1 (centres unmarked) [Cpd 242, 4-(4-((1,4-oxazepan-4-yl)methyl)-2-fluorobenzylamino)-2-(2,6-dioxopiperidin-3-yl)isoindoline-1,3-dione]
< 200 nM | CC1(C)CN(C2CN(Cc3ccc(CNc4cccc5c4C(=O)N(C4CCC(=O)NC4=O)C5=O)c(F)c3)C2)CCO1 (centres unmarked) [Cpd 245, 4-(4-((3-(2,2-dimethylmorpholino)azetidin-1-yl)methyl)-2-fluorobenzylamino)-2-(2,6-dioxopiperidin-3-yl)isoindoline-1,3-dione]
< 200 nM | C[C@@H]1COC[C@H](C)N1C1CN(Cc2ccc(CNc3cccc4c3C(=O)N(C3CCC(=O)NC3=O)C4=O)c(F)c2)C1 (stereo partly drawn) [Cpd 249, 4-(4-((3-((3S,5R)-3,5-dimethylmorpholino)azetidin-1-yl)methyl)-2-fluorobenzylamino)-2-(2,6-dioxopiperidin-3-yl)isoindoline-1,3-dione]

More lines, now with the values behind:

Structure (SMILES) | IC50
Cc1cc(CNc2cccc3c2C(=O)N(C2CCC(=O)NC2=O)C3=O)ccc1CN1CCC2(CCOCC2)CC1 (centres unmarked) [Cpd 236, 4-(4-(3-oxa-9-azaspiro[5.5]undecan-9-ylmethyl)-3-methylbenzylamino)-2-(2,6-dioxopiperidin-3-yl)isoindoline-1,3-dione] | < 200 nM
Cc1cc(CNc2cccc3c2C(=O)N(C2CCC(=O)NC2=O)C3=O)ccc1CN1CC(N2CCOCC2(C)C)C1 (centres unmarked) [Cpd 238, 4-(4-((3-(3,3-dimethylmorpholino)azetidin-1-yl)methyl)-3-methylbenzylamino)-2-(2,6-dioxopiperidin-3-yl)isoindoline-1,3-dione] | < 200 nM
CC1(C)COCCN1C1CN(Cc2ccc(CNc3cccc4c3C(=O)N(C3CCC(=O)NC3=O)C4=O)cc2)C1 (centres unmarked) [Cpd 239, 4-(4-((3-(3,3-dimethylmorpholino)azetidin-1-yl)methyl)benzylamino)-2-(2,6-dioxopiperidin-3-yl)isoindoline-1,3-dione] | 501 to 750 nM
Cc1cc(CNc2cccc3c2C(=O)N(C2CCC(=O)NC2=O)C3=O)ccc1CN1CC2(CCOC2)C1 (centres unmarked) [Cpd 243, 4-(4-(6-oxa-2-azaspiro[3.4]octan-2-ylmethyl)-3-methylbenzylamino)-2-(2,6-dioxopiperidin-3-yl)isoindoine-1,3-dione] | < 200 nM
Cc1cc(CNc2cccc3c2C(=O)N(C2CCC(=O)NC2=O)C3=O)ccc1CN1CCCOCC1 (centres unmarked) [Cpd 244, 4-(4-((1,4-oxazepan-4-yl)methyl)-3-methylbenzylamino)-2-(2,6-dioxopiperidin-3-yl)isoindoline-1,3-dione] | 501 to 750 nM
O=C1CCC(N2C(=O)c3cccc(NCc4ccc(CN5CC(N6C7CCC6COC7)C5)cc4F)c3C2=O)C(=O)N1 (centres unmarked) [Cpd 246, 4-(4-((3-(3-oxa-8-azabicyclo[3.2.1]octan-8-yl)azetidin-1-yl)methyl)-2-fluorobenzylamino)-2-(2,6-dioxopiperidin-3-yl)isoindoline-1,3-dione] | < 200 nM
Cc1cc(CNc2cccc3c2C(=O)N(C2CCC(=O)NC2=O)C3=O)ccc1CN1CC(N2C3CCC2COC3)C1 (centres unmarked) [Cpd 247, 4-(4-((3-(3-oxa-8-azabicyclo[3.2.1]octan-8-yl)azetidin-1-yl)methyl)-3-methylbenzylamino)-2-(2,6-dioxopiperidin-3-yl)isoindoline-1,3-dione] | < 200 nM
O=C1CCC(N2C(=O)c3cccc(NCc4ccc(CN5CC(N6C7CCC6COC7)C5)cc4)c3C2=O)C(=O)N1 (centres unmarked) [Cpd 248, 4-(4-((3-(3-oxa-8-azabicyclo[3.2.1]octan-8-yl)azetidin-1-yl)methyl)benzylamino)-2-(2,6-dioxopiperidin-3-yl)isoindoline-1,3-dione] | < 200 nM
